Results published in patent EP0326326A1, “Cysteine derivatives” (SANTEN PHARMACEUTICAL CO., LTD., priority 1988, dated 1989).

Assays:
[1] = test system: haemolytic plaque-forming spleen cells; assay: Effect on immune response against sheep red blood cells of mouse (haemolytic plaque-forming spleen cell count); type: in vivo, female BALB/c mice; settings: Erythrocyte, ip, 96 h, mice immunized with 5 x 10⁸ sheep red blood cells i.p., compound administered continuously for 4 days, calculated from the cell count, read-out: 50% suppressive dose
Procedure: According to the method of Iso ( Int. J. Immunotherapy, 1, 93 (1985)), 5 x 10⁸ sheep red blood cells were administered intraperitoneally to female BALB/c mice ( 3 to 5 mice a group ) and immunized.
After immunization, the test compound suspended in 1% methyl cellulose solution was administered continuously for 4 days.
Mice were killed and the number of haemolytic plaque-forming spleen cells were measured.
50% suppressive dose was calculated based on the cell count. For a comparison, the similar test with the known compound of the formula[IV] described in US Patent 4305958 was performed.

ddY mice = assay: Acute toxicity; settings: mouse, in vivo, po, 2000 mg/kg
Procedure: (§1) The compound No.2 was suspended in 0.5% methyl cellulose solution at 20% concentration. The solution was administered orally to ddY mice ( male, 5 weeks age, 6 mice a group ) at a dose of 2000mg/kg.

Acute toxicity = assay: Acute toxicity; parameters: species or system ddY mice; settings: mouse, in vivo; oral, ddY mice, male, single dose of 2000mg/kg; read-out: LD₅₀
Procedure: as §1

[2] = test system: liver disorder caused by CCl₄; assay: Effect on the liver disorder caused by CCl₄ (serum GOT and GPT levels); type: in vivo, male Wistar rats; settings: 24 hours after CCl₄ 0.25ml/kg intraperitoneally, test compound 300mg/kg orally 30 minutes before, rat
Procedure: The rat liver disorder model cause by CCl₄ is generally used to examine the efficacy of a drug for liver diseases.
The test compound was suspended in tragacanth gum solution and administered orally to male Wistar rats ( 5rats a group) at a dose of 300mg/kg.
Thirty minutes later, CCl₄ a liver disorder inducer, was given intraperitoneally at a dose of 0.25ml/kg.
Serum GOT and GPT levels were measured 24 hours after the administration of CCl₄ . To a control, 0.5% tragacanth gum solution was given.

Row | Compound | ED50 [1] [mg/kg] | Toxicity (ddY mice) | LD50 (Acute toxicity) [mg/kg] | GOT [2] | GPT [2]
1 | CC(C)(CS)C(=O)N[C@@H](CS)C(=O)O [Compound No.2, N-(2,2-Dimethyl-3-mercaptopropionyl)-L-cysteine] | 19.1 | weak with a single case of death | > 2000 | 13605 | 6558
2 | CC(C)(S)C(=O)NC(CS)C(=O)O (stereo not drawn) [known compound, reference compound] | 90.6 |  |  |  | 
